# In the supplement of paper PMC10307832:
# How the values were obtained:
# Assay in all cases: relative viability (nuclei count vs DMSO), 5 days (fraction); higher = more cells survive
# Bleomycin + Foretinib = compound: CC1=C(N=C(N=C1N)[C@H](CC(=O)N)NC[C@@H](C(=O)N)N)C(=O)N[C@@H]([C@H](C2=CN=CN2)OC3C(C(C(C(O3)CO)O)O)OC4C(C(C(C(O4)CO)O)OC(=O)N)O)C(=O)N[C@H](C)[C@H]([C@H](C)C(=O)N[C@@H]([C@@H](C)O)C(=O)NCCC5=NC(=CS5)C6=NC(=CS6)C(=O)NCCC[S+](C)C)O [Bleomycin] + COc1cc2c(Oc3ccc(NC(=O)C4(C(=O)Nc5ccc(F)cc5)CC4)cc3F)ccnc2cc1OCCCN1CCOCC1 [Foretinib] (partner 0.25 µM); settings: main component drawn
# Method in brief: (§1)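 Five library-drug doses in √10 steps were combined with a fixed anchor-drug dose, or a single drug was given alone, by pin tool to lung cancer cell lines in 1536-well plates the day after seeding. Nuclei were stained and counted after 5 days. Relative viability is the nuclei count in treated wells over that in vehicle wells, taken as the median of duplicate plates.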
# Etoposide + Bortezomib = compound: COc1cc([C@@H]2c3cc4c(cc3[C@@H](O[C@@H]3O[C@@H]5CO[C@@H](C)O[C@H]5[C@H](O)[C@H]3O)[C@H]3COC(=O)[C@H]23)OCO4)cc(OC)c1O [Etoposide] + CC(C)C[C@H](NC(=O)[C@H](Cc1ccccc1)NC(=O)c1cnccn1)B(O)O [Bortezomib] (partner 0.002 µM)
# Method in brief: as §1
# Bleomycin + Tozasertib = compound: CC1=C(N=C(N=C1N)[C@H](CC(=O)N)NC[C@@H](C(=O)N)N)C(=O)N[C@@H]([C@H](C2=CN=CN2)OC3C(C(C(C(O3)CO)O)O)OC4C(C(C(C(O4)CO)O)OC(=O)N)O)C(=O)N[C@H](C)[C@H]([C@H](C)C(=O)N[C@@H]([C@@H](C)O)C(=O)NCCC5=NC(=CS5)C6=NC(=CS6)C(=O)NCCC[S+](C)C)O [Bleomycin] + Cc1cc(Nc2cc(N3CCN(C)CC3)nc(Sc3ccc(NC(=O)C4CC4)cc3)n2)n[nH]1 [Tozasertib] (partner 0.1 µM); settings: main component drawn
# Method in brief: as §1
# Etoposide + Crizotinib = compound: COc1cc([C@@H]2c3cc4c(cc3[C@@H](O[C@@H]3O[C@@H]5CO[C@@H](C)O[C@H]5[C@H](O)[C@H]3O)[C@H]3COC(=O)[C@H]23)OCO4)cc(OC)c1O [Etoposide] + C[C@@H](Oc1cc(-c2cnn(C3CCNCC3)c2)cnc1N)c1c(Cl)ccc(F)c1Cl [Crizotinib] (partner 1 µM)
# Method in brief: as §1
cell line,measurement,setting,value
UMC-11,relative viability,Bleomycin + Foretinib; first compound 0.01 µM,0.93
same,relative viability,Bleomycin + Foretinib; first compound 0.03162 µM,1.02
same,relative viability,Bleomycin + Foretinib; first compound 0.1 µM,1.06
same,relative viability,Bleomycin + Foretinib; first compound 0.3162 µM,0.742
same,relative viability,Bleomycin + Foretinib; first compound 1 µM,0.574
same,relative viability,Etoposide + Bortezomib; first compound 0.01 µM,0.685
same,relative viability,Etoposide + Bortezomib; first compound 0.03162 µM,0.777
same,relative viability,Etoposide + Bortezomib; first compound 0.3162 µM,0.389
same,relative viability,Etoposide + Bortezomib; first compound 1 µM,0.187
same,relative viability,Bleomycin + Tozasertib; first compound 0.01 µM,0.185
same,relative viability,Bleomycin + Tozasertib; first compound 0.03162 µM,0.196
same,relative viability,Bleomycin + Tozasertib; first compound 0.1 µM,0.208
same,relative viability,Bleomycin + Tozasertib; first compound 0.3162 µM,0.203
same,relative viability,Bleomycin + Tozasertib; first compound 1 µM,0.18
same,relative viability,Etoposide + Crizotinib; first compound 0.01 µM,0.703
same,relative viability,Etoposide + Crizotinib; first compound 0.03162 µM,0.573
same,relative viability,Etoposide + Crizotinib; first compound 0.3162 µM,0.241
same,relative viability,Etoposide + Crizotinib; first compound 1 µM,0.146
